Assay results taken from US8809539B2, “Dicarboxylic acid derivatives as S1P1 receptor agonists” (Bioprojet, priority 2007, dated 2014).
Each block holds one compound with its values, some of them ahead of it.

Experiments:
Edg1 (S1P1 receptor) = target: T1, Edg1 (S1P1 receptor) (Homo sapiens, UniProt P21453); test: GTP-γ-35S binding, agonist activity at Edg1 (S1P1); type: biochemical; conditions: membranes of transfected HEK 293 or CHOK1 cells, [35S]GTP-γ-S; read-out: In-Vitro potency EC50 (nM) Edg1
T1 construct: expressed in transfected cells; host or cells: HEK 293 or CHOK1 (membranes)
T1 sequence (P21453 whole entry): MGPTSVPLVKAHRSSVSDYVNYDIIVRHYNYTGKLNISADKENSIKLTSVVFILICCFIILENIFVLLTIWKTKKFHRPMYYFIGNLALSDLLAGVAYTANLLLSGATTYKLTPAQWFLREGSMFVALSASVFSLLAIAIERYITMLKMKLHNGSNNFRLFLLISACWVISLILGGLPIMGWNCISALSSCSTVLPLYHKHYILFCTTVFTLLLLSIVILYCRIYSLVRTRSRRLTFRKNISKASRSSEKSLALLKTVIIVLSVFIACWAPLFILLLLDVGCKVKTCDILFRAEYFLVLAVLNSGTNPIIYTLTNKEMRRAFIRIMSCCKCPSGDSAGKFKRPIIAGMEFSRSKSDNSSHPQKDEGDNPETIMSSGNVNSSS
Excerpt: Human S1P1-5 receptor subtypes were stably expressed in high levels in HEK 293 or CHOK1 cells following transfection with corresponding plasmid constructs. Although the native cells somewhat respond to S1P, the level of expression and responsiveness of the antibiotic-resistant transfected cell lines that were selected is much higher.
When cultivated cells reached 80% confluence, they were collected and, after lysis, cell membranes were collected by centrifugation and washed in buffer containing antiproteases.
GTP-γ-^35S binding was performed using ˜5 μg protein of cell membranes suspended in 50 mM tris-HCl pH 7.5 containing 10 mM MgCl2, 100 mM NaCl and 10 μM GDP. The radioligand was 0.025 nM [^35S] GTP-γ-S and non specific binding determined in the presence of 10 μM non-radioactive GTP-γ-S. S1P and receptor agonists enhance the specific binding whereas inverse agonists reduce it. The maximal stimulation elicited by S1P was taken as a reference to define full or partial agonism and calculate the intrinsic activity (i.a.) of compounds.

[1] = tested on: blood lymphocytes (S1P1 receptors in vivo); test: Lymphopenia in vivo after oral administration; conditions: Swiss mice; for ED50: Mus musculus, Lymphocyte, at 24 h
Experimental: Lymphopenia was assessed in vivo. Experiments were done in Swiss mice strain (n=5 per condition). Compounds were administered orally in suspension in methyl-cellulose 1% from 1 h 30 until 48 hours before the experiments. Blood was taken on anesthetized animal (4% isoflurane) and samples collected in EDTA-containing vacuum tubes. After 5 minutes stirring, cells were counted using ABC vet hemocytometer (Scil vet animal Care)

Edg5 = target: T2, Edg5 (Homo sapiens, UniProt O95136); test: GTP-γ-35S binding, agonist activity at Edg5; type: biochemical; conditions: membranes of transfected HEK 293 or CHOK1 cells, [35S]GTP-γ-S; read-out: In-Vitro potency EC50 (nM) Edg5
T2 construct: expressed in transfected cells; host or cells: HEK 293 or CHOK1 (membranes)
T2 sequence (O95136 whole entry): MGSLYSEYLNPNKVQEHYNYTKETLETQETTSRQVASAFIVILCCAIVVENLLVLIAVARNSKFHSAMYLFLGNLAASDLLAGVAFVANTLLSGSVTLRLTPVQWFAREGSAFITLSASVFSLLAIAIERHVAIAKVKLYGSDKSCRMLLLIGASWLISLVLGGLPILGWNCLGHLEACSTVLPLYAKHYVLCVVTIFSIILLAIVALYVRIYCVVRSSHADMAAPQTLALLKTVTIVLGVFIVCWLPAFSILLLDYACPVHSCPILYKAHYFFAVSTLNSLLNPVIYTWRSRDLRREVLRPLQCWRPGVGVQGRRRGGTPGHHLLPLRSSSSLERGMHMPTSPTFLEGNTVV
Excerpt: (§1) Human S1P1-5 receptor subtypes were stably expressed in high levels in HEK 293 or CHOK1 cells following transfection with corresponding plasmid constructs. Although the native cells somewhat respond to S1P, the level of expression and responsiveness of the antibiotic-resistant transfected cell lines that were selected is much higher. When cultivated cells reached 80% confluence, they were collected and, after lysis, cell membranes were collected by centrifugation and washed in buffer containing antiproteases. GTP-γ-^35S binding was performed using ˜5 μg protein of cell membranes suspended in 50 mM tris-HCl pH 7.5 containing 10 mM MgCl2, 100 mM NaCl and 10 μM GDP. The radioligand was 0.025 nM [^35S] GTP-γ-S and non specific binding determined in the presence of 10 μM non-radioactive GTP-γ-S. S1P and receptor agonists enhance the specific binding whereas inverse agonists reduce it. The maximal stimulation elicited by S1P was taken as a reference to define full or partial agonism and calculate the intrinsic activity (i.a.) of compounds.

Edg3 (S1P3 receptor) = target: T3, Edg3 (S1P3 receptor) (Homo sapiens, UniProt Q99500); test: GTP-γ-35S binding, agonist activity at Edg3 (S1P3); type: biochemical; conditions: membranes of transfected HEK 293 or CHOK1 cells, [35S]GTP-γ-S; read-out: In-Vitro potency EC50 (nM) Edg3
T3 construct: expressed in transfected cells; host or cells: HEK 293 or CHOK1 (membranes)
T3 sequence (Q99500 whole entry): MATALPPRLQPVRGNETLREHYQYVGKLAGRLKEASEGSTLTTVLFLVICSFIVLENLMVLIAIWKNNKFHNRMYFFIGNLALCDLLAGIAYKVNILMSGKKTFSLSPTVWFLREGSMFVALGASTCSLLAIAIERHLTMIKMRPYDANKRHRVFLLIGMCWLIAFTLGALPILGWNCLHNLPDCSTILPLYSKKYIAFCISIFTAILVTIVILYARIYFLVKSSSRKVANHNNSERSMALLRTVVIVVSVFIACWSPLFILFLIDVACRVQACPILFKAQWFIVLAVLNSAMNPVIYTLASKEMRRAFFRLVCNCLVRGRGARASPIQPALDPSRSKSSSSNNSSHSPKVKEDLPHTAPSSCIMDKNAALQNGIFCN
Excerpt: as §1

EC50 (Edg1 (S1P1 receptor)): 11.8 nM
Structure (SMILES): COC(=O)C1(C(=O)O)CC(N(C)Cc2ccc(-c3noc(-c4ccc(CC(C)C)cc4)n3)cc2)C1 (single isomer, unassigned) [Example 54]

Structure (SMILES): COC(=O)C1(C(=O)O)CCN(Cc2ccc(-c3noc(-c4ccc(CC(C)C)cc4)n3)cc2)CC1 [Example 8]
ED50 [1]: 3.5 mg/kg

EC50 (Edg5): > 1000 nM
EC50 (Edg1 (S1P1 receptor)): 0.7 nM
EC50 (Edg3 (S1P3 receptor)): > 1000 nM
Structure (SMILES): O=C(O)C1(C(=O)O)CCN(Cc2ccc(-c3noc(-c4ccc(-c5ccccc5)cc4)n3)cc2)CC1 [Example 15]

EC50 (Edg5): > 1000 nM
EC50 (Edg1 (S1P1 receptor)): 2.2 nM
EC50 (Edg3 (S1P3 receptor)): > 1000 nM
Structure (SMILES): CO/N=C(/c1ccco1)c1nc(-c2ccc(CN3CCC(C(=O)O)(C(=O)O)CC3)cc2)no1 [Example 22]

EC50 (Edg1 (S1P1 receptor)): 1.7 nM
Structure (SMILES): C=C(C)[C@@H]1CC=C(c2nc(-c3ccc(CN4CCC(C(=O)O)(C(=O)O)CC4)cc3)no2)CC1 [Example 25]

Structure (SMILES): Cl.O=C(O)C1(C(=O)O)CC(NCc2ccc(-c3noc(-c4ccc(-c5ccccc5)c(F)c4)n3)cc2)C1 [Example 49]
% lymphopenia ([1]; at 10 mg/kg, after 24 h): at 10 mg/kg 86% lymphopenia after 24 h

EC50 (Edg1 (S1P1 receptor)): 6.3 nM
Structure (SMILES): CC(C)(C)C(=O)COC(=O)C1(C(=O)O)CCN(Cc2ccc(-c3noc(-c4ccc(-c5ccccc5)c(F)c4)n3)cc2)CC1 [Example 62, 1-{4-[5-(2-fluorobiphenyl-4-yl)[1,2,4]oxadiazol-3-yl]benzyl}-piperidine-4,4-dicarboxylic acid (3,3-dimethyl-2-oxobutyl)ester]
ED50 [1]: 0.03 mg/kg
